≈ marks a conversion by molar mass, not a printed value. Read-outs that look alike come from different tables or passages of the source. Where a SMILES comes first, the peptide text is derived from it.
What was measured:
A. baumannii [1] = test: MIC of antimicrobial peptide during combined treatment with antibiotic; assay type: cell-based, Acinetobacter baumannii
Summary of the method: (§1)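 Antibiotic MIC came from antibiotic dilutions added to bacteria (2×10^6 CFU/ml, MH medium) already combined with peptide serially diluted 2:1 from its own MIC. Swapping the roles of the two agents gave the peptide MIC.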

MDRAB 12035 [2] = test: as above; assay type: cell-based, Acinetobacter baumannii
Summary of the method: as §1

E. coli [3] = test: MIC of antibiotic during combined treatment with antimicrobial peptide; assay type: cell-based, Escherichia coli; conditions: for Antibiotic MIC, Erythromycin / Antibiotic MIC, Linezolid / Antibiotic MIC, Vancomycin: E. coli
Summary of the method: (§2)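 Antibiotic diluted in MH medium, dispensed per well with peptide; setup repeated with roles reversed; MIC read per combination.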

P. aeruginosa = test: microbe, parasite or virus in culture; assay type: cell-based, Pseudomonas aeruginosa
Summary of the method: (§3)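 Broth microdilution in MH medium: strains diluted to 2×10^6 CFU were mixed with equal volumes of twofold serial peptide dilutions in MH medium. MIC was taken as the lowest peptide concentration preventing bacterial growth.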

MDRST 8009 = assay type: cell-based, Salmonella typhimurium; conditions: agent alone
Summary of the method: as §3

E. coli [4] = assay type: cell-based, Escherichia coli; conditions: E. coli
Summary of the method: as §1

MDREC 1229 [5] = assay type: cell-based, Escherichia coli
Summary of the method: as §1

E. coli [6] = test: microbe, parasite or virus in culture; assay type: cell-based, Escherichia coli; conditions: 16 h
Summary of the method: as §3

MDREC 1229 [7] = test: microbe, parasite or virus in culture; assay type: cell-based, Escherichia coli
Summary of the method: as §3

A. baumannii [8] = test: MIC of antibiotic during combined treatment with antimicrobial peptide; assay type: cell-based, Acinetobacter baumannii; conditions: for Antibiotic MIC, Erythromycin / Antibiotic MIC, Linezolid / Antibiotic MIC, Vancomycin: A. baumannii
Summary of the method: as §2

S. epidermidis = test: microbe, parasite or virus in culture; assay type: cell-based, Staphylococcus epidermidis
Summary of the method: as §3

S. aureus = test: microbe, parasite or virus in culture; assay type: cell-based, Staphylococcus aureus
Summary of the method: as §3

A. baumannii [9] = test: microbe, parasite or virus in culture; assay type: cell-based, Acinetobacter baumannii
Summary of the method: as §3

MDRAB 12035 [10] = test: microbe, parasite or virus in culture; assay type: cell-based, Acinetobacter baumannii
Summary of the method: as §3

B. subtilis = test: microbe, parasite or virus in culture; assay type: cell-based, Bacillus subtilis
Summary of the method: as §3

[11] = erythromycin 4 μg/ml (Conc./MIC 1/8)
[12] = erythromycin 8 μg/ml (Conc./MIC 1/4)
[13] = erythromycin 16 μg/ml (Conc./MIC 1/2)
[14] = erythromycin 32 μg/ml (Conc./MIC 1)
[15] = vancomycin 512 μg/ml (Conc./MIC 1/2)
[16] = vancomycin 1024 μg/ml (Conc./MIC 1)
[17] = with Erythromycin […] (Conc./MIC 1)
[18] = combined with peptide at 1 μg/ml
[19] = combined with peptide at 2 μg/ml
[20] = combined with peptide at 4 μg/ml
[21] = combined with peptide at 6 μg/ml
[22] = combined with peptide at 8 μg/ml
[23] = combined with peptide at 16 μg/ml
[24] = combined with peptide at 32 μg/ml
[25] = combined with peptide at 64 μg/ml

With `CC[C@H](C)[C@H](NC(=O)[C@H](CCCCN)NC(=O)[C@H](Cc1c[nH]c2ccccc12)NC(=O)[C@@H](N)CCCNC(=N)N)C(=O)N[C@@H](Cc1ccccc1)C(=O)N[C@@H](CCCCN)C(=O)N[C@@H](CCCCN)C(=O)N[C@H](C(=O)N1CCC[C@H]1C(=O)N[C@@H](CCCCN)C(=O)N[C@@H](Cc1ccccc1)C(=O)N[C@@H](CC(C)C)C(=O)N[C@@H](Cc1c[nH]cn1)C(=O)N[C@@H](CO)C(=O)N[C@@H](C)C(=O)N[C@@H](CCCCN)C(=O)N[C@@H](CCCCN)C(=O)N[C@@H](Cc1c[nH]c2ccccc12)C(N)=O)[C@@H](C)CC` [PapMA-2, RWK IFK KIP KFL HSA KKW-NH2] (H-RWKIFKKIPKFLHSAKKW-NH2; N-terminus assumed) the “Peptide MIC during treatment with antibiotic” value (A. baumannii [1]; [11]) was 4 µg/mL, the “Peptide MIC during treatment with antibiotic” value (A. baumannii [1]; [12]) was 4 µg/mL and the “Peptide MIC during treatment with antibiotic” value (A. baumannii [1]; [13]) was 1 µg/mL. The “Peptide MIC during treatment with antibiotic” value (A. baumannii [1]; [14]) was 0 µg/mL, the “Peptide MIC during treatment with antibiotic” value (A. baumannii [1]; linezolid 32 μg/ml (Conc./MIC 1/8)) was 4 µg/mL and the “Peptide MIC during treatment with antibiotic” value (A. baumannii [1]; linezolid 64 μg/ml (Conc./MIC 1/4)) was 4 µg/mL. The “Peptide MIC during treatment with antibiotic” value (A. baumannii [1]; linezolid […] (Conc./MIC 1)) was 0 µg/mL, the “Peptide MIC during treatment with antibiotic” value (A. baumannii [1]; linezolid […] (Conc./MIC 1/2)) was 0.5 µg/mL and the “Peptide MIC during treatment with antibiotic” value (A. baumannii [1]; [15]) was 0.25 µg/mL. The “Peptide MIC during treatment with antibiotic” value (A. baumannii [1]; [16]) was 0 µg/mL, the “Peptide MIC during treatment with antibiotic” value (A. baumannii [1]; vancomycin […] (Conc./MIC 1/4)) was 0.5 µg/mL and the “Peptide MIC during treatment with antibiotic” value (A. baumannii [1]; vancomycin […] (Conc./MIC 1/8)) was 2 µg/mL. The “Peptide MIC during treatment with erythromycin” value (MDRAB 12035 [2]; [11]) was 4 µg/mL, the “Peptide MIC during treatment with erythromycin” value (MDRAB 12035 [2]; [12]) was 4 µg/mL and the “Peptide MIC during treatment with erythromycin” value (MDRAB 12035 [2]; [13]) was 2 µg/mL. The “Peptide MIC during treatment with erythromycin” value (MDRAB 12035 [2]; [14]) was 0 µg/mL, the “Peptide MIC during treatment with linezolid” value (MDRAB 12035 [2]; linezolid 64 μg/ml (Conc./MIC 1/8)) was 4 µg/mL and the “Peptide MIC during treatment with linezolid” value (MDRAB 12035 [2]; linezolid 512 μg/ml (Conc./MIC 1)) was 0 µg/mL. The “Peptide MIC during treatment with linezolid” value (MDRAB 12035 [2]; linezolid […] (Conc./MIC 1/2)) was 1 µg/mL, the “Peptide MIC during treatment with linezolid” value (MDRAB 12035 [2]; linezolid […] (Conc./MIC 1/4)) was 2 µg/mL and the “Peptide MIC during treatment with vancomycin” value (MDRAB 12035 [2]; [15]) was 1 µg/mL. The “Peptide MIC during treatment with vancomycin” value (MDRAB 12035 [2]; [16]) was 0.25 µg/mL, the “Peptide MIC during treatment with vancomycin” value (MDRAB 12035 [2]; vancomycin […] (Conc./MIC 1/4)) was 2 µg/mL and the “Peptide MIC during treatment with vancomycin” value (MDRAB 12035 [2]; vancomycin […] (Conc./MIC 1/8)) was 4 µg/mL. For the same molecule, the “Synergistic effect of antibacterial activity with existing antibiotics compared with PapMA-1” value (E. coli [3]; E. coli and MDREC1229) was “higher level than the PapMA-1 peptide”, the “Antibiotic MIC, Erythromycin” value (E. coli [3]; erythromycin combined with peptide at 1 μg/ml) was 64 µg/mL and the “Antibiotic MIC, Erythromycin” value (E. coli [3]; erythromycin combined with peptide at 2 μg/ml) was 32 µg/mL. The “Antibiotic MIC, Erythromycin” value (E. coli [3]; erythromycin combined with peptide at 4 μg/ml) was 16 µg/mL, the “Antibiotic MIC, Erythromycin” value (E. coli [3]; erythromycin combined with peptide at 6 μg/ml) was 2 µg/mL and the “Antibiotic MIC, Erythromycin” value (E. coli [3]; erythromycin combined with peptide at 8 μg/ml) was 0.5 µg/mL. For the same molecule, the “Antibiotic MIC, Erythromycin” value (E. coli [3]; erythromycin combined with peptide at 16 μg/ml) was 0.25 µg/mL, the “Antibiotic MIC, Erythromycin” value (E. coli [3]; erythromycin combined with peptide at 32 μg/ml) was 0.125 µg/mL and the “Antibiotic MIC, Erythromycin” value (E. coli [3]; erythromycin combined with peptide at 64 μg/ml) was 0 µg/mL. For the same molecule, the “Antibiotic MIC, Linezolid” value (E. coli [3]; linezolid combined with peptide at 1 μg/ml) was 128 µg/mL, the “Antibiotic MIC, Linezolid” value (E. coli [3]; linezolid combined with peptide at 2 μg/ml) was 64 µg/mL and the “Antibiotic MIC, Linezolid” value (E. coli [3]; linezolid combined with peptide at 4 μg/ml) was 16 µg/mL. For the same molecule, the “Antibiotic MIC, Linezolid” value (E. coli [3]; linezolid combined with peptide at 6 μg/ml) was 16 µg/mL, the “Antibiotic MIC, Linezolid” value (E. coli [3]; linezolid combined with peptide at 8 μg/ml) was 8 µg/mL and the “Antibiotic MIC, Linezolid” value (E. coli [3]; linezolid combined with peptide at 16 μg/ml) was 8 µg/mL. For the same molecule, the “Antibiotic MIC, Linezolid” value (E. coli [3]; linezolid combined with peptide at 32 μg/ml) was 4 µg/mL, the “Antibiotic MIC, Linezolid” value (E. coli [3]; linezolid combined with peptide at 64 μg/ml) was 0 µg/mL and the “Antibiotic MIC, Vancomycin” value (E. coli [3]; vancomycin combined with peptide at 1 μg/ml) was greater than 128 µg/mL. The “Antibiotic MIC, Vancomycin” value (E. coli [3]; vancomycin combined with peptide at 2 μg/ml) was greater than 128 µg/mL, the “Antibiotic MIC, Vancomycin” value (E. coli [3]; vancomycin combined with peptide at 4 μg/ml) was greater than 128 µg/mL and the “Antibiotic MIC, Vancomycin” value (E. coli [3]; vancomycin combined with peptide at 6 μg/ml) was 64 µg/mL. For the same molecule, the “Antibiotic MIC, Vancomycin” value (E. coli [3]; vancomycin combined with peptide at 8 μg/ml) was 32 µg/mL, the “Antibiotic MIC, Vancomycin” value (E. coli [3]; vancomycin combined with peptide at 16 μg/ml) was 8 µg/mL and the “Antibiotic MIC, Vancomycin” value (E. coli [3]; vancomycin combined with peptide at 32 μg/ml) was 4 µg/mL. The “Antibiotic MIC, Vancomycin” value (E. coli [3]; vancomycin combined with peptide at 64 μg/ml) was 0 µg/mL, the “Lowering of the MIC value of the antibiotics mixed with peptide compared with PapMA-1” value (E. coli [3]; same peptide concentration as PapMA-1) was “twice to four times” and the “Minimal inhibitory concentration MIC” value (P. aeruginosa) was 16 µg/mL (≈ 6.83 µM). The “Minimal inhibitory concentration MIC” value (MDRST 8009) was 64 µg/mL (≈ 27.3 µM), the “Peptide MIC” value (E. coli [4]; [17]) was 0 µg/mL and the “Peptide MIC” value (E. coli [4]; with Linezolid […] (Conc./MIC 1)) was 0 µg/mL. For the same molecule, the “Peptide MIC” value (E. coli [4]; with Vancomycin 1024 μg/ml (Conc./MIC 1)) was 0 µg/mL, the “Peptide MIC” value (MDREC 1229 [5]; [17]) was 0 µg/mL and the “Peptide MIC” value (MDREC 1229 [5]; with Linezolid 512 μg/ml (Conc./MIC 1)) was 0 µg/mL. The “Minimal inhibitory concentration MIC” value (E. coli [6]) was 64 µg/mL (≈ 27.3 µM), the “Minimal inhibitory concentration MIC” value (MDREC 1229 [7]) was 64 µg/mL (≈ 27.3 µM) and the “Synergistic effect of antibacterial activity with existing antibiotics compared with PapMA-1” value (A. baumannii [8]; A. baumannii and MDRAB 12035) was “higher level than the PapMA-1 peptide”. For the same molecule, the “Antibiotic MIC, Erythromycin” value (A. baumannii [8]; [18]) was 16 µg/mL, the “Antibiotic MIC, Linezolid” value (A. baumannii [8]; [18]) was greater than 128 µg/mL and the “Antibiotic MIC, Vancomycin” value (A. baumannii [8]; [18]) was greater than 128 µg/mL. For the same molecule, the “Antibiotic MIC, Erythromycin” value (A. baumannii [8]; [19]) was 16 µg/mL, the “Antibiotic MIC, Linezolid” value (A. baumannii [8]; [19]) was 64 µg/mL and the “Antibiotic MIC, Vancomycin” value (A. baumannii [8]; [19]) was 128 µg/mL. For the same molecule, the “Antibiotic MIC, Erythromycin” value (A. baumannii [8]; [20]) was 8 µg/mL, the “Antibiotic MIC, Linezolid” value (A. baumannii [8]; [20]) was 32 µg/mL and the “Antibiotic MIC, Vancomycin” value (A. baumannii [8]; [20]) was 32 µg/mL. The “Antibiotic MIC, Erythromycin” value (A. baumannii [8]; [21]) was 1 µg/mL, the “Antibiotic MIC, Linezolid” value (A. baumannii [8]; [21]) was 16 µg/mL and the “Antibiotic MIC, Vancomycin” value (A. baumannii [8]; [21]) was 16 µg/mL. For the same molecule, the “Antibiotic MIC, Erythromycin” value (A. baumannii [8]; [22]) was 0.125 µg/mL, the “Antibiotic MIC, Linezolid” value (A. baumannii [8]; [22]) was 8 µg/mL and the “Antibiotic MIC, Vancomycin” value (A. baumannii [8]; [22]) was 8 µg/mL. The “Antibiotic MIC, Erythromycin” value (A. baumannii [8]; [23]) was 0 µg/mL, the “Antibiotic MIC, Linezolid” value (A. baumannii [8]; [23]) was 0 µg/mL and the “Antibiotic MIC, Vancomycin” value (A. baumannii [8]; [23]) was 0 µg/mL. For the same molecule, the “Antibiotic MIC, Erythromycin” value (A. baumannii [8]; [24]) was 0 µg/mL, the “Antibiotic MIC, Linezolid” value (A. baumannii [8]; [24]) was 0 µg/mL and the “Antibiotic MIC, Vancomycin” value (A. baumannii [8]; [24]) was 0 µg/mL. The “Antibiotic MIC, Erythromycin” value (A. baumannii [8]; [25]) was 0 µg/mL, the “Antibiotic MIC, Linezolid” value (A. baumannii [8]; [25]) was 0 µg/mL and the “Antibiotic MIC, Vancomycin” value (A. baumannii [8]; [25]) was 0 µg/mL. For the same molecule, the “Minimal inhibitory concentration MIC” value (S. epidermidis) was greater than 128 µg/mL, the “Minimal inhibitory concentration MIC” value (S. aureus) was greater than 128 µg/mL and the “Minimal inhibitory concentration MIC” value (A. baumannii [9]) was 16 µg/mL (≈ 6.83 µM). The “Peptide MIC, peptide alone” value (A. baumannii [9]) was 16 µg/mL, the “Antibacterial activity relative to PapMA-1” value (A. baumannii [9]; A. baumannii and antibiotic-resistant strains thereof) was 4 times and the “Minimal inhibitory concentration MIC” value (MDRAB 12035 [10]) was 16 µg/mL (≈ 6.83 µM). The “Peptide MIC, peptide alone” value (MDRAB 12035 [10]) was 16 µg/mL and the “Minimal inhibitory concentration MIC” value (B. subtilis) was greater than 128 µg/mL.
